Columns and labels:
velvetleaf [1] = experiment: Test Example 5: herbicidal effect by foliage application, plastic box (Table 20, symbol M); type: in vivo, velvetleaf (Abutilon theophrasti); conditions: foliage application, 320 g/ha, three weeks after application
Outline: (§1)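 Post-emergence foliar test in sterilized diluvial soil. Compound applied as water-diluted emulsion at a predetermined rate to 14-day-old plants; evaluation at three weeks.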

barnyard grass [2] = experiment: Test Example 4: herbicidal effect by soil treatment (Table 19, symbol H); type: in vivo, barnyard grass (Echinochloa crus-galli); conditions: amount of applied herbicide 320 g/ha
Outline: (§2)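 Scoring uses the grading scale of an earlier test, three weeks post-application. Treatment consists of spraying a diluted emulsion formulation across the surface of sterilized diluvial soil in which seeds are buried near 1.5 cm deep; boxes are kept in a greenhouse between 25° C. and 30° C.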

late watergrass = experiment: Test Example 1: herbicidal activity, application before weed generation under submerged conditions (Table 16, symbol A); type: in vivo, late watergrass (Echinochloa oryzicola); conditions: 320 g/ha applied herbicide
Outline: (§3)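 Emulsion formulation, water-diluted to set dose, was put onto the flooded surface (4 cm depth, alluvial soil) the same day weeds were sown and 2.5-leaf rice transplanted. After 3 weeks at 25-30 °C under glass, each species was rated 0 (≤5% kill) to 5 (≥90% kill).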

wild oat [3] = experiment: Test Example 5: herbicidal effect by foliage application, plastic box (Table 20, symbol I); type: in vivo, wild oat (Avena fatua); conditions: foliage application, 320 g/ha, three weeks after application
Outline: as §1

redroot pigweed [4] = experiment: Test Example 4: herbicidal effect by soil treatment (Table 19, symbol N); type: in vivo, redroot pigweed (Amaranthus retroflexus); conditions: amount of applied herbicide 320 g/ha
Outline: as §2

lambsquarters [5] = experiment: Test Example 5: herbicidal effect by foliage application, plastic box (Table 20, symbol O); type: in vivo, lambsquarters (Chenopodium album); conditions: foliage application, 320 g/ha, three weeks after application
Outline: as §1

green foxtail [6] = experiment: Test Example 4: herbicidal effect by soil treatment (Table 19, symbol G); type: in vivo, green foxtail (Setaria viridis); conditions: amount of applied herbicide 320 g/ha
Outline: as §2

Japanese bulrush = experiment: Test Example 1: herbicidal activity, application before weed generation under submerged conditions (Table 16, symbol B); type: in vivo, Japanese bulrush (Schoenoplectus juncoides); conditions: 320 g/ha applied herbicide
Outline: as §3

barnyard grass [7] = experiment: Test Example 3: herbicidal effect by foliage application, Wagner pot (Table 18, symbol H); type: in vivo, barnyard grass (Echinochloa crus-galli); conditions: 320 g/ha
Outline: (§4)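 Plants were sown in alluvial soil held under 0.1–0.5 cm standing water and grown 14 days in a greenhouse at 25–30 °C. An emulsifiable formulation, water-diluted to the set dose, was then sprayed onto the foliage, and effects were scored three weeks later using previously defined criteria.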

redroot pigweed [8] = experiment: Test Example 5: herbicidal effect by foliage application, plastic box (Table 20, symbol N); type: in vivo, redroot pigweed (Amaranthus retroflexus); conditions: foliage application, 320 g/ha, three weeks after application
Outline: as §1

chickweed [9] = experiment: Test Example 4: herbicidal effect by soil treatment (Table 19, symbol P); type: in vivo, common chickweed (Stellaria media); conditions: amount of applied herbicide 320 g/ha
Outline: as §2

false cleavers [10] = experiment: Test Example 4: herbicidal effect by soil treatment (Table 19, symbol Q); type: in vivo, false cleavers (Galium spurium); conditions: amount of applied herbicide 320 g/ha
Outline: as §2

persian speedwell [11] = experiment: Test Example 4: herbicidal effect by soil treatment (Table 19, symbol R); type: in vivo, Persian speedwell (Veronica persica); conditions: amount of applied herbicide 320 g/ha
Outline: as §2

barnyard grass [12] = experiment: Test Example 5: herbicidal effect by foliage application, plastic box (Table 20, symbol H); type: in vivo, barnyard grass (Echinochloa crus-galli); conditions: foliage application, 320 g/ha, three weeks after application
Outline: as §1

southern crabgrass [13] = experiment: Test Example 5: herbicidal effect by foliage application, plastic box (Table 20, symbol F); type: in vivo, southern crabgrass (Digitaria ciliaris); conditions: foliage application, 320 g/ha, three weeks after application
Outline: as §1

windgrass [14] = experiment: Test Example 4: herbicidal effect by soil treatment (Table 19, symbol L); type: in vivo, windgrass (Apera spica-venti); conditions: amount of applied herbicide 320 g/ha
Outline: as §2

persian speedwell [15] = experiment: Test Example 5: herbicidal effect by foliage application, plastic box (Table 20, symbol R); type: in vivo, Persian speedwell (Veronica persica); conditions: foliage application, 320 g/ha, three weeks after application
Outline: as §1

velvetleaf [16] = experiment: Test Example 4: herbicidal effect by soil treatment (Table 19, symbol M); type: in vivo, velvetleaf (Abutilon theophrasti); conditions: amount of applied herbicide 320 g/ha
Outline: as §2

oval-leafed pondweed = experiment: Test Example 1: herbicidal activity, application before weed generation under submerged conditions (Table 16, symbol C); type: in vivo, oval-leafed pondweed (Monochoria vaginalis); conditions: 320 g/ha applied herbicide
Outline: as §3

southern crabgrass [17] = experiment: Test Example 4: herbicidal effect by soil treatment (Table 19, symbol F); type: in vivo, southern crabgrass (Digitaria ciliaris); conditions: amount of applied herbicide 320 g/ha
Outline: as §2

blackgrass [18] = experiment: Test Example 5: herbicidal effect by foliage application, plastic box (Table 20, symbol J); type: in vivo, blackgrass (Alopecurus myosuroides); conditions: foliage application, 320 g/ha, three weeks after application
Outline: as §1

lambsquarters [19] = experiment: Test Example 4: herbicidal effect by soil treatment (Table 19, symbol O); type: in vivo, lambsquarters (Chenopodium album); conditions: amount of applied herbicide 320 g/ha
Outline: as §2

Italian ryegrass [20] = experiment: Test Example 5: herbicidal effect by foliage application, plastic box (Table 20, symbol K); type: in vivo, Italian ryegrass (Lolium multiflorum); conditions: foliage application, 320 g/ha, three weeks after application
Outline: as §1

blackgrass [21] = experiment: Test Example 4: herbicidal effect by soil treatment (Table 19, symbol J); type: in vivo, blackgrass (Alopecurus myosuroides); conditions: amount of applied herbicide 320 g/ha
Outline: as §2

Chinese sprangletop = experiment: Test Example 3: herbicidal effect by foliage application, Wagner pot (Table 18, symbol D); type: in vivo, chinese sprangletop (Leptochloa chinensis); conditions: 320 g/ha
Outline: as §4

false cleavers [22] = experiment: Test Example 5: herbicidal effect by foliage application, plastic box (Table 20, symbol Q); type: in vivo, false cleavers (Galium spurium); conditions: foliage application, 320 g/ha, three weeks after application
Outline: as §1

wild oat [23] = experiment: Test Example 4: herbicidal effect by soil treatment (Table 19, symbol I); type: in vivo, wild oat (Avena fatua); conditions: amount of applied herbicide 320 g/ha
Outline: as §2

green foxtail [24] = experiment: Test Example 5: herbicidal effect by foliage application, plastic box (Table 20, symbol G); type: in vivo, green foxtail (Setaria viridis); conditions: foliage application, 320 g/ha, three weeks after application
Outline: as §1

Italian ryegrass [25] = experiment: Test Example 4: herbicidal effect by soil treatment (Table 19, symbol K); type: in vivo, Italian ryegrass (Lolium multiflorum); conditions: amount of applied herbicide 320 g/ha
Outline: as §2

windgrass [26] = experiment: Test Example 5: herbicidal effect by foliage application, plastic box (Table 20, symbol L); type: in vivo, windgrass (Apera spica-venti); conditions: foliage application, 320 g/ha, three weeks after application
Outline: as §1

chickweed [27] = experiment: Test Example 5: herbicidal effect by foliage application, plastic box (Table 20, symbol P); type: in vivo, common chickweed (Stellaria media); conditions: foliage application, 320 g/ha, three weeks after application
Outline: as §1

rice flat sedge = experiment: Test Example 3: herbicidal effect by foliage application, Wagner pot (Table 18, symbol E); type: in vivo, rice flat sedge (Cyperus iria); conditions: 320 g/ha
Outline: as §4

`CCCC(=O)Oc1c(C)nn(C)c(=O)c1-c1c(-c2ccc(OC)c(C)c2)sc2ccccc12` [1-069] was tested, and the “herbicidal effect grade, M: velvetleaf” value (velvetleaf [1]) was 5 (Herbicidal rate of 90% or more (almost completely withered)), the “herbicidal effect rating, H: barnyard grass” value (barnyard grass [2]) was 0 (Herbicidal rate of 5% or less (almost no effect)) and the “Herbicidal effect on A: late watergrass (grade 0-5)” value (late watergrass) was 3 (Herbicidal rate of 40% or more and less than 70%). For the same molecule, the “herbicidal effect grade, I: wild oat” value (wild oat [3]) was 1 (Herbicidal rate of 5% or more and less than 20%), the “herbicidal effect rating, N: redroot pigweed” value (redroot pigweed [4]) was 0 (Herbicidal rate of 5% or less (almost no effect)) and the “herbicidal effect grade, O: lambsquarters” value (lambsquarters [5]) was 0 (Herbicidal rate of 5% or less (almost no effect)). For the same molecule, the “herbicidal effect rating, G: green foxtail” value (green foxtail [6]) was 0 (Herbicidal rate of 5% or less (almost no effect)), the “Herbicidal effect on B: Japanese bulrush (grade 0-5)” value (Japanese bulrush) was 3 (Herbicidal rate of 40% or more and less than 70%) and the “herbicidal effect on H (barnyard grass), rating 0-5” value (barnyard grass [7]) was 3 (Herbicidal rate of 40% or more and less than 70%). For the same molecule, the “herbicidal effect grade, N: redroot pigweed” value (redroot pigweed [8]) was 5 (Herbicidal rate of 90% or more (almost completely withered)), the “herbicidal effect rating, P: chickweed” value (chickweed [9]) was 3 (Herbicidal rate of 40% or more and less than 70%) and the “herbicidal effect rating, Q: false cleavers” value (false cleavers [10]) was 0 (Herbicidal rate of 5% or less (almost no effect)). The “herbicidal effect rating, R: persian speedwell” value (persian speedwell [11]) was 4 (Herbicidal rate of 70% or more and less than 90%), the “herbicidal effect grade, H: barnyard grass” value (barnyard grass [12]) was 0 (Herbicidal rate of 5% or less (almost no effect)) and the “herbicidal effect grade, F: southern crabgrass” value (southern crabgrass [13]) was 0 (Herbicidal rate of 5% or less (almost no effect)). The “herbicidal effect rating, L: windgrass” value (windgrass [14]) was 0 (Herbicidal rate of 5% or less (almost no effect)), the “herbicidal effect grade, R: persian speedwell” value (persian speedwell [15]) was 4 (Herbicidal rate of 70% or more and less than 90%) and the “herbicidal effect rating, M: velvetleaf” value (velvetleaf [16]) was 0 (Herbicidal rate of 5% or less (almost no effect)). The “Herbicidal effect on C: oval-leafed pondweed (grade 0-5)” value (oval-leafed pondweed) was 3 (Herbicidal rate of 40% or more and less than 70%), the “herbicidal effect rating, F: southern crabgrass” value (southern crabgrass [17]) was 0 (Herbicidal rate of 5% or less (almost no effect)) and the “herbicidal effect grade, J: blackgrass” value (blackgrass [18]) was 0 (Herbicidal rate of 5% or less (almost no effect)). For the same molecule, the “herbicidal effect rating, O: lambsquarters” value (lambsquarters [19]) was 0 (Herbicidal rate of 5% or less (almost no effect)), the “herbicidal effect grade, K: Italian ryegrass” value (Italian ryegrass [20]) was 3 (Herbicidal rate of 40% or more and less than 70%) and the “herbicidal effect rating, J: blackgrass” value (blackgrass [21]) was 0 (Herbicidal rate of 5% or less (almost no effect)). The “herbicidal effect on D (Chinese sprangletop), rating 0-5” value (Chinese sprangletop) was 0 (Herbicidal rate of 5% or less (almost no effect)), the “herbicidal effect grade, Q: false cleavers” value (false cleavers [22]) was 0 (Herbicidal rate of 5% or less (almost no effect)) and the “herbicidal effect rating, I: wild oat” value (wild oat [23]) was 0 (Herbicidal rate of 5% or less (almost no effect)). The “herbicidal effect grade, G: green foxtail” value (green foxtail [24]) was 0 (Herbicidal rate of 5% or less (almost no effect)), the “herbicidal effect rating, K: Italian ryegrass” value (Italian ryegrass [25]) was 0 (Herbicidal rate of 5% or less (almost no effect)) and the “herbicidal effect grade, L: windgrass” value (windgrass [26]) was 0 (Herbicidal rate of 5% or less (almost no effect)). The “herbicidal effect grade, P: chickweed” value (chickweed [27]) was 4 (Herbicidal rate of 70% or more and less than 90%) and the “herbicidal effect on E (rice flat sedge), rating 0-5” value (rice flat sedge) was 5 (Herbicidal rate of 90% or more (almost completely withered)).

— US20230085307A1, “PYRIDAZINONE COMPOUND AND HERBICIDE” (NISSAN CHEMICAL CORPORATION, priority 2019, published 2023)
